Reference: the supplement of paper PMC7600603

How the values were obtained:
[1] = tested on: DLD1 NRF2-WT; test: drug sensitivity score (DSS) viability (DSS score); higher = more sensitive; extreme values may be limits of the assay; details: 72 h; CellTiter-Glo viability
In short: (§1)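 DLD1 colorectal cancer cells, an isogenic pair either NRF2 wild-type or carrying a CRISPR gain-of-function, were cultured in DMEM with 10% FBS and treated in 384-well plates with library compounds at 5 concentrations across a 10,000-fold range. CellTiter-Glo viability was read on a Pherastar FS reader after 72 h and normalised to vehicle wells and 100-μM positive-control wells. Four-parameter logistic dose-response fits were applied. EC50 and drug sensitivity score, a normalised area under the curve, were taken from these fits.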

[2] = tested on: DLD1 NRF2-GOF; test: as above; details: 72 h; CellTiter-Glo viability
In short: as §1

[3] = tested on: DLD1 NRF2-WT; details: 72 h; CellTiter-Glo viability
In short: as §1

[4] = tested on: DLD1 NRF2-GOF; details: 72 h; CellTiter-Glo viability
In short: as §1

[5] = tested on: DLD1 NRF2-WT; test: TC50 cytotoxicity; higher = less toxic; details: 72 h; CellTox Green cytotoxicity
In short: (§2)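 Isogenic DLD1 colorectal cancer cells differing in NRF2 status, one line edited by CRISPR, were cultured in DMEM with 10% FBS and treated in 384-well plates with library compounds at 5 concentrations spanning a 10,000-fold range. Plates were read after 72 h with CellTox Green on a Pherastar FS reader, and signals were normalised to vehicle wells and 100-μM positive-control wells. Cytotoxicity was summarised as TC50 and as a drug sensitivity score, a normalised area under the curve, both from logistic dose-response fits.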

[6] = tested on: DLD1 NRF2-GOF; test: TC50 cytotoxicity; higher = less toxic; details: 72 h; CellTox Green cytotoxicity
In short: as §2

[7] = tested on: DLD1 NRF2-WT; test: drug sensitivity score (DSS) cytotoxicity (DSS score); higher = more toxic; extreme values may be limits of the assay; details: 72 h; CellTox Green cytotoxicity
In short: as §2

[8] = tested on: DLD1 NRF2-GOF; test: as above; details: 72 h; CellTox Green cytotoxicity
In short: as §2

| Structure (SMILES) | drug sensitivity score [1] | drug sensitivity score [2] | EC50 viability [3] [nM] | EC50 viability [4] [nM] | TC50 cytotoxicity [5] [nM] | TC50 cytotoxicity [6] [nM] | drug sensitivity score [7] | drug sensitivity score [8] |
| --- | --- | --- | --- | --- | --- | --- | --- | --- |
| CCN(CC)CCNC(=O)c1c(C)[nH]c(/C=C2\C(=O)Nc3ccc(F)cc32)c1C [Sunitinib] | 1.9 | 2.8 | 381 | 229 | > 1000 | > 1000 | 0 | 0 |
| CCS(=O)(=O)c1cccc(-c2cc(C(=O)NC3CCN(C)CC3)c(C)c3[nH]c4ncc(C)cc4c23)c1 [TAK-901] | 7.8 | 11.2 | 108 | 53.3 | > 1000 | 83.7 | 2.2 | 5.6 |
| Cc1cccc(-c2[nH]c(CNc3ccccc3F)nc2-c2ccc3ncnn3c2)n1 [TEW-7197] | 0 | 1.7 | > 2500 | > 2500 | > 2500 | > 2500 | 0 | 0 |
| Nc1nc(N)c2nc(-c3cccc(O)c3)c(-c3cccc(O)c3)nc2n1 [TG100-115] | 7.1 | 3.5 | 75.1 | 1430 | > 10000 | > 10000 | 0 | 0 |
| CC(C)Oc1ccc(-c2nn([C@@H](C)c3oc4ccc(F)cc4c(=O)c3-c3cccc(F)c3)c3ncnc(N)c23)cc1F [TGR-1202] | 0 | 0 | > 2500 | > 2500 | > 2500 | > 2500 | 0 | 0 |
| C=CC[C@@H]1/C=C(\C)C[C@H](C)C[C@H](OC)[C@H]2O[C@@](O)(C(=O)C(=O)N3CCCC[C@H]3C(=O)O[C@H](/C(C)=C/[C@@H]3CC[C@@H](O)[C@H](OC)C3)[C@H](C)[C@@H](O)CC1=O)[C@H](C)C[C@@H]2OC [Tacrolimus] | 4.5 | 5 | 933 | 844 | > 10000 | > 10000 | 0 | 0 |
| C[C@@H](C(=O)O)c1ccc(-c2ccccc2)c(F)c1 [Tarenflurbil] | 0 | 0 | > 10000 | > 10000 | > 10000 | > 10000 | 0 | 0 |
| Cc1nc(-c2cn3c(n2)-c2ccc(-c4cnn(C(C)(C)C(N)=O)c4)cc2OCC3)n(C(C)C)n1 [Taselisib] | 5.5 | 0.9 | 11.7 | > 1000 | > 1000 | > 1000 | 0.4 | 0 |
| COc1cccc2c1c(O)c(C(=O)N(C)c1ccc(C(F)(F)F)cc1)c(=O)n2C [Tasquinimod] | 1.8 | 1.2 | > 10000 | > 10000 | > 10000 | > 10000 | 0 | 0 |
| CN1CCC(COc2cnc(-c3cccc(Cn4nc(-c5cccc(C#N)c5)ccc4=O)c3)nc2)CC1 [Tepotinib] | 0 | 0 | > 1000 | > 1000 | > 1000 | > 1000 | 0 | 0 |
| COc1cc2c(Nc3ccc(Cl)c(Cl)c3F)ncnc2cc1OC[C@@H]1C[C@@H]2CN(C)C[C@@H]2C1 [Tesevatinib] | 5.1 | 1.2 | 167 | 425 | > 1000 | > 1000 | 0.1 | 0 |
| Nc1nc2[nH]cnc2c(=S)[nH]1 [Thioguanine] | 4.4 | 9.4 | 3500 | 1290 | > 10000 | > 10000 | 0.2 | 0 |
| O=C1NC(=O)[C@@H](c2cn3c4c(cccc24)CCC3)[C@@H]1c1c[nH]c2ccccc12 [Tivantinib] | 6.7 | 5 | 164 | 242 | > 1000 | > 1000 | 1.4 | 0.9 |
| COc1cc2nccc(Oc3ccc(NC(=O)Nc4cc(C)on4)c(Cl)c3)c2cc1OC [Tivozanib] | 3.1 | 2.3 | 3040 | 3590 | 2920 | 2640 | 2.3 | 4.5 |
| CC[C@@]1(O)C(=O)OCc2c1cc1n(c2=O)Cc2cc3c(CN(C)C)c(O)ccc3nc2-1 [Topotecan] | 8.1 | 9.2 | 1500 | 1090 | 2200 | 3390 | 3.1 | 1.9 |
